{
  "source": "paper PMC9232612",
  "about": "“A phase 1b randomised controlled trial of a glucagon-like peptide-1 and glucagon receptor dual agonist IBI362 (LY3305677) in Chinese patients with type 2 diabetes” (Nature Communications, 2022)",
  "assay_type_in_all_cases": "in vivo, human",
  "key": {"[1]": {"test_system": "Chinese patients with T2D", "test": "Homeostatic model assessment of insulin resistance (HOMA-IR)", "details": "for Change from baseline to week 12 in HOMA-IR, individual: single patients", "description": "(§1) Exploratory outcomes included change from baseline in body weight, waist circumference, body-mass index (BMI) and change in homeostatic model assessment of β-cell function (HOMA-β) and insulin resistance (HOMA-IR)."}, "[2]": {"test_system": "Chinese patients with T2D", "test": "Mixed-meal tolerance test (MTT): insulin", "experimental": "HbA1c (2200101, Bio-Rad, USA), blood glucose (05168791190, Roche Diagnostics, Germany), insulin (12017547122, Roche Diagnostics, Germany), C peptide (03184897190, Roche Diagnostics, Germany), total GLP-1 (GLP-1 [7–36] amide and its metabolite, GLP-1 [9–36] amide, 10-1278-01, Mercodia AB, Sweden) and OXM (AL-139, AnshLabs, USA) tests were performed according to the manufactures’ instruction manuals in a central laboratory (KingMed Diagnostics, Guangzhou, China). HbA1c was measured using a Bio-rad D-100 Haemoglobin Testing System (Bio-rad). Blood glucose was measured using a Roche Cobas c702 analyser (Roche Diagnostics). Insulin and C peptide were measured using a Roche […] analyser (Roche Diagnostics). GLP-1 and OXM were measured using a Tecan Infinite M Plex microplate reader (TECAN).\nStandard non-compartmental pharmacokinetics methods were used to analyze IBI362 plasma concentration data using Pkanalix 2020R1 (Lixoft, Antony, France). Secondary efficacy outcomes included change from baseline to week 12 in HbA1c, fasting plasma glucose (FPG), fasting insulin levels, change from baseline to week 12 in post-mixed-meal tolerance test (post-MTT) glucose, insulin, C peptide, GLP-1 and OXM levels, as well as seven-point self-measured blood glucose (SMBG) profile. […]\n3. Standard meal test (MTT) collection measures included: insulin, C-peptide, plasma glucose, glucagon, endogenous OXM, and endogenous GLP-1. The sampling points include: fasting, 30 min, 1h, 2h, 3h and 4h.\nA total of 9 mL blood will be collected from each blood collection point. See the manual of the central laboratory for the detailed operation process. Fasting state refers to fasting for 10 hours. [ The standard meal is\ninstant noodles. The master Kang roast beef noodles (bucket noodles) purchased by the sponsor in a unified manner are removed from the oil bag. The noodles are soaked in boiled water and then removed. The seasoning\nbag is added and mixed well. The time is counted from the first bite of eating. The noodles are eaten within 10 minutes, and 200 mL of water is drunk; or the instant noodles are directly opened with 200 mL of boiled\nwater to ensure that the noodles are eaten and the water or soup is drunk]. Visit days when MTT test is performed: 1 day prior to Cycle 1 administration, Day 80 (D80). […]\n● Test by central laboratory"}, "[3]": {"test": "Body weight", "details": "for Percent change from baseline to week 12 in body weight, single patients: each line a single patient; for Percent change from baseline in body weight, LS mean / Percent change from baseline in body weight, LS mean (SE): n=8; for Percent change from baseline in body weight, LS mean / Percent change from baseline in body weight, LS mean (SE) / Body weight (percent CFB): ETD versus placebo, LS mean (90% CI): MMRM; for Percent change from baseline in body weight, LS mean (SE) / Body weight (percent CFB): ETD versus placebo, LS mean (90% CI): week 12", "experimental": "as §1\nThe analyses for change from baseline in HbA1c, FPG, post-MTT glucose AUC0–4 h and body weight were performed using the mixed-effect model for repeated measures (MMRM) with least-squares means and standard error provided. The MMRM included the corresponding baseline value, treatment, visit and treatment-by-visit as fixed effects and patient as a random effect. Mean change or mean percent change from baseline were analysed using a restricted maximum likelihood (REML)‐based repeated measures approach in combination with the Newton Raphson Algorithm. The fix effect of visit was fitted as a repeated effect and an unstructured covariance matrix was used. In case of non-converge, matrix like Variance Components and Compound Symmetry will be tested in a subsequent order until model‐convergence is achieved. The Kenward-Roger degree of freedom was used in estimating fixed effects. No missing data imputation was conducted. For HbA1c, FPG and body weight, point estimate of treatment difference versus placebo and 90% CI were provided for each IBI362 dose group and the dulaglutide group, with nominal p values."}},
  "note": "Several values for one entry are separate records, joined by “and”; a condition that tells them apart may be missing. Equal values may be shown once.",
  "data": [
    {"compound": "CC(C)C[C@H](NC(=O)[C@H](CC(C)C)NC(=O)[C@H](Cc1c[nH]c2ccccc12)NC(=O)[C@H](CCC(=O)O)NC(=O)[C@@H](NC(=O)[C@H](Cc1ccccc1)NC(=O)[C@H](CCC(=O)O)NC(=O)[C@H](CCCCNC(=O)COCCOCCNC(=O)COCCOCCNC(=O)CC[C@H](NC(=O)CCCCCCCCCCCCCCCCCCC(=O)O)C(=O)O)NC(=O)[C@H](C)NC(=O)[C@H](CCCCN)NC(=O)[C@H](CCCCN)NC(=O)[C@H](CCC(=O)O)NC(=O)[C@H](CC(=O)O)NC(=O)[C@H](CC(C)C)NC(=O)[C@H](Cc1ccc(O)cc1)NC(=O)[C@H](CCCCN)NC(=O)[C@H](CO)NC(=O)[C@H](Cc1ccc(O)cc1)NC(=O)[C@H](CC(=O)O)NC(=O)[C@H](CO)NC(=O)[C@@H](NC(=O)[C@H](Cc1ccccc1)NC(=O)[C@@H](NC(=O)CNC(=O)[C@H](CCC(N)=O)NC(=O)C(C)(C)NC(=O)[C@@H](N)Cc1c[nH]cn1)[C@@H](C)O)[C@@H](C)O)C(C)C)C(=O)N[C@@H](CCC(=O)O)C(=O)NCC(=O)NCC(=O)N1CCC[C@H]1C(=O)N[C@@H](CO)C(=O)N[C@@H](CO)C(=O)NCC(N)=O", "note": "[IBI362]", "values": [
      {"measurement": "Change from baseline to week 12 in HOMA-IR, mean", "setting": "[1]; 6.0 mg cohort, n=8", "value": -5.4},
      {"measurement": "Change from baseline to week 12 in HOMA-IR, individual", "setting": "[1]; 3.0 mg cohort, n=7", "value": "-4.8 and -1.3 and -2.3 and -1.2 and -2.4"},
      {"measurement": "Change from baseline to week 12 in HOMA-IR, individual", "setting": "[1]; 4.5 mg cohort, n=5", "value": "-2.8 and -5.0 and -1.9 and 2.5 and -0.5"},
      {"measurement": "Change from baseline to week 12 in HOMA-IR, individual", "setting": "[1]; 6.0 mg cohort, n=8", "value": "-1.9 and -5.3 and -0.4 and -4.2 and -1.1 and -1.0 and -22.2 and -7.0"},
      {"measurement": "Insulin during MTT, mean", "setting": "[2]; week 12, 0 min, 3.0 mg cohort, n=7", "value": 9.22, "unit": "μU/mL"},
      {"measurement": "Insulin during MTT, mean", "setting": "[2]; week 12, 0 min, 4.5 mg cohort, n=5", "value": 13.41, "unit": "μU/mL"},
      {"measurement": "Insulin during MTT, mean", "setting": "[2]; week 12, 0 min, 6.0 mg cohort, n=8", "value": 13.25, "unit": "μU/mL"},
      {"measurement": "Insulin during MTT, mean", "setting": "[2]; week 12, 30 min, 3.0 mg cohort, n=7", "value": 17.47, "unit": "μU/mL"},
      {"measurement": "Insulin during MTT, mean", "setting": "[2]; week 12, 30 min, 4.5 mg cohort, n=5", "value": 22.16, "unit": "μU/mL"},
      {"measurement": "Insulin during MTT, mean", "setting": "[2]; week 12, 30 min, 6.0 mg cohort, n=8", "value": 22.08, "unit": "μU/mL"},
      {"measurement": "Insulin during MTT, mean", "setting": "[2]; week 12, 60 min, 3.0 mg cohort, n=7", "value": 34.23, "unit": "μU/mL"},
      {"measurement": "Insulin during MTT, mean", "setting": "[2]; week 12, 60 min, 4.5 mg cohort, n=5", "value": 41.02, "unit": "μU/mL"},
      {"measurement": "Insulin during MTT, mean", "setting": "[2]; week 12, 60 min, 6.0 mg cohort, n=8", "value": 41.49, "unit": "μU/mL"},
      {"measurement": "Insulin during MTT, mean", "setting": "[2]; week 12, 120 min, 3.0 mg cohort, n=7", "value": 57.20, "unit": "μU/mL"},
      {"measurement": "Insulin during MTT, mean", "setting": "[2]; week 12, 120 min, 4.5 mg cohort, n=5", "value": 45.65, "unit": "μU/mL"},
      {"measurement": "Insulin during MTT, mean", "setting": "[2]; week 12, 120 min, 6.0 mg cohort, n=8", "value": 64.69, "unit": "μU/mL"},
      {"measurement": "Insulin during MTT, mean", "setting": "[2]; week 12, 180 min, 3.0 mg cohort, n=7", "value": 39.93, "unit": "μU/mL"},
      {"measurement": "Insulin during MTT, mean", "setting": "[2]; week 12, 180 min, 4.5 mg cohort, n=5", "value": 50.30, "unit": "μU/mL"},
      {"measurement": "Insulin during MTT, mean", "setting": "[2]; week 12, 180 min, 6.0 mg cohort, n=8", "value": 46.96, "unit": "μU/mL"},
      {"measurement": "Insulin during MTT, mean", "setting": "[2]; week 12, 240 min, 3.0 mg cohort, n=7", "value": 23.01, "unit": "μU/mL"},
      {"measurement": "Insulin during MTT, mean", "setting": "[2]; week 12, 240 min, 4.5 mg cohort, n=5", "value": 25.01, "unit": "μU/mL"},
      {"measurement": "Insulin during MTT, mean", "setting": "[2]; week 12, 240 min, 6.0 mg cohort, n=8", "value": 24.25, "unit": "μU/mL"},
      {"measurement": "body weight reductions from baseline to week 12 (up to)", "setting": "[3]; across IBI362 cohorts", "value": "up to 5.4%"},
      {"measurement": "Percent change from baseline to week 12 in body weight, single patients", "setting": "[3]; 3.0 mg cohort", "value": "-0.9% and -2.2% and 0.6% and -1.0% and 0.0% and -5.1%"},
      {"measurement": "Percent change from baseline to week 12 in body weight, single patients", "setting": "[3]; 4.5 mg cohort", "value": "-15.9% and -3.7% and 1.3% and -1.6% and -6.0%"},
      {"measurement": "Percent change from baseline in body weight, LS mean", "setting": "[3]; week 4, 3.0 mg cohort", "value": 0.1, "unit": "%"},
      {"measurement": "Percent change from baseline in body weight, LS mean", "setting": "[3]; week 4, 4.5 mg cohort", "value": -1.1, "unit": "%"},
      {"measurement": "Percent change from baseline in body weight, LS mean", "setting": "[3]; week 4, 6.0 mg cohort", "value": -1.7, "unit": "%"},
      {"measurement": "Percent change from baseline in body weight, LS mean", "setting": "[3]; week 8, 3.0 mg cohort", "value": -0.2, "unit": "%"},
      {"measurement": "Percent change from baseline in body weight, LS mean", "setting": "[3]; week 8, 4.5 mg cohort", "value": -2.1, "unit": "%"},
      {"measurement": "Percent change from baseline in body weight, LS mean", "setting": "[3]; week 8, 6.0 mg cohort", "value": -3.3, "unit": "%"},
      {"measurement": "Percent change from baseline in body weight, LS mean (SE)", "setting": "[3]; 3.0 mg cohort", "value": "−0.9 (1.3) % and −0.9%"},
      {"measurement": "Body weight (percent CFB): ETD versus placebo, LS mean (90% CI)", "setting": "[3]; 3.0 mg cohort", "value": "0.1 ( −2.6, 2.8) %"},
      {"measurement": "Percent change from baseline in body weight, LS mean (SE)", "setting": "[3]; 4.5 mg cohort", "value": -5.0, "unit": "%"},
      {"measurement": "Body weight (percent CFB): ETD versus placebo, LS mean (90% CI)", "setting": "[3]; 4.5 mg cohort", "value": "−4.0 (−6.7, −1.2) % and −4.0%"},
      {"measurement": "Percent change from baseline in body weight, LS mean (SE)", "setting": "[3]; 6.0 mg cohort", "value": -5.4, "unit": "%"},
      {"measurement": "Body weight (percent CFB): ETD versus placebo, LS mean (90% CI)", "setting": "[3]; 6.0 mg cohort", "value": "−4.4 (−7.0, −1.7) % and −4.4%"}
    ]}
  ]
}
